Measurements reported in ChEMBL document CHEMBL3616422, “A novel family of diarylpyrimidines (DAPYs) featuring a diatomic linker: Design, synthesis and anti-HIV activities” (Bioorg Med Chem, 2015).

How the values were obtained:
[1] = molecular target: Human immunodeficiency virus type 1 reverse transcriptase (Human immunodeficiency virus 1, UniProt Q72547); experiment: Inhibition of recombinant HIV1 Reverse transcriptase p66/p51 using poly (rA)-oligo (dT) as template primer after 40 mins by spectrofluorometric analysis
[2] = Selectivity index, ratio of CC50 for uninfected human MT4 cells to EC50 for wild type HIV 1 3B infected in human MT4 cells; assay type: toxicity, cell-based; settings: uninfected and infected with wild type HIV-1 3B, read-out: Ratio CC50/EC50
[3] = Cytotoxicity against uninfected human MT4 cells assessed as decrease in cell viability after 5 days by MTT assay; assay type: cell-based
[4] = tested on: Human immunodeficiency virus 1; experiment: Antiviral activity against HIV 1 RES056 harboring reverse transcriptase K103N/Y181C double mutant infected in human MT4 cells assessed as protection against virus-induced cytopathogenicity after 5 days by MTT assay; assay type: functional, organism-based; settings: Human immunodeficiency virus 1, RES056, MT4, 120 h
[5] = tested on: Human immunodeficiency virus 2; experiment: Antiviral activity against wild type HIV 2 ROD infected in human MT4 cells assessed as protection against virus-induced cytopathogenicity after 5 days by MTT assay; assay type: functional, organism-based; settings: Human immunodeficiency virus 2, ISOLATE ROD, MT4, 120 h
[6] = tested on: Human immunodeficiency virus 1; experiment: Antiviral activity against wild type HIV 1 3B infected in human MT4 cells assessed as protection against virus-induced cytopathogenicity after 5 days by MTT assay; assay type: functional, organism-based; settings: Human immunodeficiency virus 1, 3B, MT4, 120 h

| SMILES | IC50 [1] [nM] | selectivity ratio [2] | CC50 at 120 h [3] [µM] | EC50 [4] [µg/mL] | EC50 [5] [µg/mL] | EC50 [6] [nM] |
| --- | --- | --- | --- | --- | --- | --- |
| N#Cc1ccc(Nc2nccc(NCc3ccccc3)n2)cc1 | 20 | 294 | 1.59 | > 0.48 | > 0.48 | 5.3 |
| N#Cc1ccc(Nc2nccc(NCc3ccccc3Cl)n2)cc1 | 24 | 18600 | 275 | > 92.3 | > 92.3 | 14.9 |
| N#Cc1ccc(Nc2nccc(NCc3cccc(Cl)c3)n2)cc1 | 18 | 175 | 2.08 | > 0.7 | > 0.7 | 11.9 |
| N#Cc1ccc(Nc2nccc(NCc3ccc(Cl)cc3)n2)cc1 | 48 | 71 | 3.28 | > 1.1 | > 1.1 | 47.6 |
| N#Cc1ccc(Nc2nccc(NCc3ccccc3Br)n2)cc1 | 71 | 4680 | 195 | > 74.1 | > 74.1 | 42.1 |
| N#Cc1ccc(Nc2nccc(NCc3cccc(Br)c3)n2)cc1 | 24 | 86 | 1.76 | > 0.67 | > 0.67 | 20.3 |
| N#Cc1ccc(Nc2nccc(NCc3ccc(Br)cc3)n2)cc1 | 29 | 85 | 3.37 | > 1.28 | > 1.28 | 39.4 |
| N#Cc1ccc(Nc2nccc(NCc3ccccc3F)n2)cc1 | 16 | 1080 | 2.76 | > 0.88 | > 0.88 | 2.6 |
| N#Cc1ccc(Nc2nccc(NCc3cccc(F)c3)n2)cc1 | 16 | 333 | 1.41 | > 0.45 | > 0.45 | 4.4 |
| N#Cc1ccc(Nc2nccc(NCc3ccc(F)cc3)n2)cc1 | 382 | 23 | 1.72 | > 0.55 | > 0.55 | 72 |
| Cc1ccc(CNc2ccnc(Nc3ccc(C#N)cc3)n2)cc1 | 13 | 297 | 2.5 | > 0.79 | > 0.79 | 8.2 |
| COc1ccccc1CNc1ccnc(Nc2ccc(C#N)cc2)n1 | 936 | 937 | 82.5 | > 27.3 | > 27.3 | 87.5 |
| COc1cccc(CNc2ccnc(Nc3ccc(C#N)cc3)n2)c1 | 18 | 518 | 2.38 | > 0.79 | > 0.79 | 4.5 |
| COc1ccc(CNc2ccnc(Nc3ccc(C#N)cc3)n2)cc1 | 85 | 60 | 2.35 | > 0.78 | > 0.78 | 39.3 |
| N#Cc1ccc(Nc2nccc(NCc3ccccc3C(F)(F)F)n2)cc1 | 1540 | 107 | 113 | > 41.6 | > 41.6 | 1060 |
| N#Cc1ccc(Nc2nccc(NCc3cccc(C(F)(F)F)c3)n2)cc1 | 122 | 9 | 1.92 | > 0.71 | > 0.71 | 206 |
| N#Cc1ccc(Nc2nccc(NCc3ccc(C(F)(F)F)cc3)n2)cc1 | 70 | 24 | 3.01 | > 1.11 | > 1.11 | 127 |
| Cc1ccc(CNc2ccnc(Nc3ccc(C#N)cc3)n2)cc1C | 9 | 1190 | 3.67 | > 1.21 | > 1.21 | 3 |
| N#Cc1ccc(Nc2nccc(NCc3ccc(F)cc3F)n2)cc1 | 56 | 245 | 4.18 | > 1.41 | > 1.41 | 16.9 |
| O=C1Nc2ccc(Cl)cc2[C@@](C#CC2CC2)(C(F)(F)F)O1 [EFAVIRENZ] |  |  | > 6.34 |  |  | 6.3 |
| Cc1cc(C#N)cc(C)c1Oc1nc(Nc2ccc(C#N)cc2)nc(N)c1Br [ETRAVIRINE] |  |  | > 4.59 |  |  |  |
| Cc1ccnc2c1NC(=O)c1cccnc1N2C1CC1 [NEVIRAPINE] |  |  | > 15 | ≥ 2.02 |  |  |
